According to patent US20230348426A1, “OXOPYRROLIDINE FPR2 AGONISTS” (Bristol-Myers Squibb Company, priority 2020, published 2023):

What was measured:
human FPR2 = human FPR2 (Homo sapiens (Human), UniProt P25090); assay: FPR2 cyclic adenosine monophosphate (cAMP) assay; assay type: cell-based; conditions: CHO cells overexpressing human FPR2; forskolin 5 µM; inhibition of cAMP production; read-out: hFPR2 cAMP2 EC50
Outline: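 Inhibition of forskolin-driven (5 µM) cAMP, with 200 µM IBMX, measured in human FPR2-expressing CHO cells, 2,000 per well, 30 min at room temperature; compounds tested 0.020 nM to 100 µM in 1% DMSO. HTRF 665/590 ratio converted to cAMP via calibration curve, then 4-parameter fit.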

human FPR1 = human FPR1 (Homo sapiens (Human), UniProt P21462); assay: FPR1 cyclic adenosine monophosphate (cAMP) assay; assay type: cell-based; conditions: CHO cells overexpressing human FPR1; forskolin 10 µM; inhibition of cAMP production; read-out: hFPR1 cAMP EC50
Outline: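 Human FPR1-expressing CHO cells were used at 4,000 per well, with compound at 0.020 nM–100 µM in 1% DMSO. Potency came from a 4-parameter logistic fit.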

Sequence of human FPR2 (P25090 whole entry): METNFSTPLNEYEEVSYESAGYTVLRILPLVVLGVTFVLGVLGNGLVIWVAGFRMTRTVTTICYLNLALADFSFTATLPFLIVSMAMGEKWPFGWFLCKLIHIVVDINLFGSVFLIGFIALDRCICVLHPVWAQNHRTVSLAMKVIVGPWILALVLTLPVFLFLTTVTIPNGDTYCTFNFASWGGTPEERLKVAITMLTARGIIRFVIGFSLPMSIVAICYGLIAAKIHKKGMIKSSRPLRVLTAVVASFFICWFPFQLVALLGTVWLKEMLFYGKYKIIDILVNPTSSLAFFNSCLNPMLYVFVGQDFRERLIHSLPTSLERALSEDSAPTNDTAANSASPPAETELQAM
Sequence of human FPR1 (P21462 whole entry): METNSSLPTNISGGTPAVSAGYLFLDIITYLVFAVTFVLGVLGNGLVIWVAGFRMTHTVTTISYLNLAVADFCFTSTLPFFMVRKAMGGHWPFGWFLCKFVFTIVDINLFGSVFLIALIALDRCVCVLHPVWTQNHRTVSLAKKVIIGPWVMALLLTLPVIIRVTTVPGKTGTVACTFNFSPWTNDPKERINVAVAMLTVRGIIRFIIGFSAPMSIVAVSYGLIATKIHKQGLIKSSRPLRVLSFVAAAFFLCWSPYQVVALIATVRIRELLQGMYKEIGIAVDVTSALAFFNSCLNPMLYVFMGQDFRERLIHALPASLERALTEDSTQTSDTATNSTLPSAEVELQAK

EC50 (human FPR2)	EC50 (human FPR1)	SMILES
1.8 nM	1 nM	COc1ccc([C@@H]2CN(c3cccn(CC(OC)C(F)(F)F)c3=O)C(=O)[C@H]2NC(=O)c2ccc(OC(F)(F)F)cc2)cc1 (stereo partly shown) [Example 433]
4.4 nM	10 nM	COc1ccc([C@@H]2CN(c3cccn(CC(C)O)c3=O)C(=O)[C@H]2NC(=O)c2ccc(OC(F)F)cc2)cc1 (stereo partly shown) [Example 434]
2.8 nM	4 nM	COc1ccc([C@@H]2CN(c3cccn(CC(C)O)c3=O)C(=O)[C@H]2NC(=O)c2ccc(OC(F)(F)F)cc2)c(F)c1 (stereo partly shown) [Example 435]
< 5 nM	9 nM	COc1ccc([C@@H]2CN(c3cccn(CC(C)O)c3=O)C(=O)[C@H]2NC(=O)c2ccc(OC(F)F)cc2)c(F)c1 (stereo partly shown) [Example 436]
1 nM	1 nM	COCC(CO)n1cccc(N2C[C@@H](c3ccc(OC)cc3F)[C@H](NC(=O)c3ccc(OC(F)(F)F)cc3)C2=O)c1=O (stereo partly shown) [Example 437]
3.9 nM	7 nM	COCC(CO)n1cccc(N2C[C@@H](c3ccc(OC)cc3F)[C@H](NC(=O)c3ccc(OC(F)F)cc3)C2=O)c1=O (stereo partly shown) [Example 438]
5.5 nM	7 nM	CC(O)Cn1cccc(N2C[C@@H](c3ccc(Cl)cc3)[C@H](NC(=O)c3ccc(OC(F)(F)F)cc3)C2=O)c1=O (stereo partly shown) [Example 439]
1.3 nM	11 nM	COc1ccc([C@@H]2CN(c3cccn(CC(C)O)c3=O)C(=O)[C@H]2NC(=O)c2ccc(OC(F)(F)F)cc2)cc1 (stereo partly shown) [Example 440]
5.2 nM	3 nM	COCC(C(=O)N1CCOCC1)n1cccc(N2C[C@@H](c3ccc(OC)cc3)[C@H](NC(=O)c3ccc(OC(F)F)cc3)C2=O)c1=O (stereo partly shown) [Example 441]
9.6 nM	1 nM	Cc1ccn(CC2CC2)c(=O)c1N1C[C@@H](c2ccc(Cl)cc2)[C@H](NC(=O)c2ccc(OC(F)F)cc2)C1=O [Example 442]
5.1 nM	2 nM	Cc1ccn(CC(F)F)c(=O)c1N1C[C@@H](c2ccc(Cl)cc2)[C@H](NC(=O)c2ccc(OC(F)(F)F)cc2)C1=O [Example 443]
1.8 nM	1 nM	COCC(C(=O)N1CCCC1)n1cccc(N2C[C@@H](c3ccc(OC)cc3)[C@H](NC(=O)c3ccc(OC(F)F)cc3)C2=O)c1=O (stereo partly shown) [Example 444]
4.2 nM	620 nM	COc1cc(F)c([C@H]2[C@H](NC(=O)c3ccc(OC(F)F)cc3)C(=O)N(c3cccn(CCO)c3=O)[C@H]2C)c(F)c1 [Example 445]
< 5 nM	3 nM	COc1cc(F)c([C@@H]2CN(c3cc4c(n(CCO)c3=O)CCCC4)C(=O)[C@H]2NC(=O)c2ccc(OC(F)F)cc2)c(F)c1 [Example 446]
4.7 nM	2800 nM	COc1cc(F)c([C@@H]2CN(c3nccc(NCC4CCCO4)c3C(F)(F)F)C(=O)[C@H]2NC(=O)c2ccc(Cl)cc2)c(F)c1 (stereo partly shown) [Example 447]
8 nM	9 nM	COCC(C(=O)N1CC[C@@H](O)C1)n1cccc(N2C[C@@H](c3c(F)cc(OC)cc3F)[C@H](NC(=O)c3ccc(OC(F)F)cc3)C2=O)c1=O (stereo partly shown) [Example 448]
3.5 nM	0.2 nM	COCC(CO)n1ccc(C)c(N2C[C@@H](c3ccc(OC)cc3)[C@H](NC(=O)c3ccc(OC(F)(F)F)cc3)C2=O)c1=O (stereo partly shown) [Example 449]
3 nM	3 nM	COc1cc(F)c([C@@H]2CN(c3c(C)ccn(CC4CC4)c3=O)C(=O)[C@H]2NC(=O)c2ccc(Cl)cc2)c(F)c1 [Example 450]
2 nM	1900 nM	COc1cc(F)c([C@@H]2CN(c3nccc(NCCS(C)(=O)=O)c3C(F)(F)F)C(=O)[C@H]2NC(=O)c2ccc(Cl)cc2)c(F)c1 [Example 451]
9.6 nM	4 nM	COCC(CO)n1nccc(N2C[C@@H](c3c(F)cc(OC)cc3F)[C@H](NC(=O)c3ccc(OC(F)(F)F)cc3)C2=O)c1=O (stereo partly shown) [Example 452]

Further lines, the molecule ahead of its results:

SMILES	EC50 (human FPR2)	EC50 (human FPR1)
COc1cc(F)c([C@@H]2CN(c3cccnc3OCCO)C(=O)[C@H]2NC(=O)c2ccc(OC(F)(F)F)cc2)c(F)c1 [Example 396]	9.5 nM	39 nM
COCC(CO)n1cccc(N2C[C@@H](c3ccc(OC)cc3)[C@H](NC(=O)c3ccc(Cl)cc3)C2=O)c1=O (stereo partly shown) [Example 397]	2.7 nM	15 nM
COCCn1nccc(N2C[C@@H](c3c(F)cc(OC)cc3F)[C@H](NC(=O)c3ccc(OC(F)F)cc3)C2=O)c1=O [Example 398]	7.2 nM	11 nM
COc1ccc([C@@H]2CN(c3c(C)ccn(CCC(F)(F)F)c3=O)C(=O)[C@H]2NC(=O)c2ccc(Cl)cc2)c(F)c1 [Example 401]	3.7 nM	7 nM
COc1ccc([C@@H]2CN(c3c(C)ccn(CCC(F)(F)F)c3=O)C(=O)[C@H]2NC(=O)c2ccc(OC(F)F)cc2)c(F)c1 [Example 402]	2.8 nM	3 nM
COc1ccc([C@@H]2CN(c3cccn(CC(C)OC)c3=O)C(=O)[C@H]2NC(=O)c2ccc(OC(F)(F)F)cc2)cc1 (stereo partly shown) [Example 405]	4.7 nM	2 nM
COCC(CO)n1cccc(N2C[C@@H](c3ccc(Cl)cc3)[C@H](NC(=O)c3ccc(Cl)cc3)C2=O)c1=O (stereo partly shown) [Example 406]	2.9 nM	9 nM
COc1cc(F)c([C@H]2[C@H](NC(=O)c3ccc(OC(F)F)cc3)C(=O)N(c3cccn(CCO)c3=O)[C@@H]2C)c(F)c1 [Example 407]	7.8 nM	640 nM
COCCOc1ncccc1N1C[C@@H](c2c(F)cc(OC)cc2F)[C@H](NC(=O)c2ccc(OC(F)(F)F)cc2)C1=O [Example 408]	3.5 nM	9 nM
CC(O)Cn1cccc(N2C[C@@H](c3ccc(Cl)cc3)[C@H](NC(=O)c3ccc(OC(F)F)cc3)C2=O)c1=O (stereo partly shown) [Example 409]	6.3 nM	36 nM
COCCNc1ccnc(N2C[C@@H](c3c(F)cc(OC)cc3F)[C@H](NC(=O)c3ccc(Cl)cc3)C2=O)c1C(F)(F)F [Example 410]	11.7 nM	3300 nM
COCC(CO)n1cccc(N2C[C@@H](c3ccc(OC)cc3)[C@H](NC(=O)c3ccc(Cl)cc3)C2=O)c1=O (stereo partly shown) [Example 411]	2.6 nM	120 nM
COCCOc1ncccc1N1C[C@@H](c2c(F)cc(OC)cc2F)[C@H](NC(=O)c2ccc(OC(F)F)cc2)C1=O [Example 412]	7.6 nM	93 nM
COCCOc1ncccc1N1C[C@@H](c2c(F)cc(OC)cc2F)[C@H](NC(=O)c2ccc(Cl)cc2)C1=O [Example 413]	0.6 nM	120 nM
COCC(CO)n1cccc(N2C[C@@H](c3ccc(Cl)cc3)[C@H](NC(=O)c3ccc(Cl)cc3)C2=O)c1=O (stereo partly shown) [Example 414]	4.7 nM	19 nM
Cc1ccn(CC(F)F)c(=O)c1N1C[C@@H](c2ccc(Cl)cc2)[C@H](NC(=O)c2ccc(OC(F)F)cc2)C1=O [Example 415]	6.8 nM	3 nM
COc1ccc([C@@H]2CN(c3cccn(CC(OC)C(F)(F)F)c3=O)C(=O)[C@H]2NC(=O)c2ccc(OC(F)F)cc2)cc1 (stereo partly shown) [Example 416]	1.7 nM	1 nM
COc1cc(F)c([C@@H]2CN(c3cccn(CC(OC)C(F)(F)F)c3=O)C(=O)[C@H]2NC(=O)c2ccc(Cl)cc2)c(F)c1 (stereo partly shown) [Example 417]	2.9 nM	17 nM
COc1ccc([C@@H]2CN(c3cccn(CC(C)OC)c3=O)C(=O)[C@H]2NC(=O)c2ccc(OC(F)F)cc2)c(F)c1 (stereo partly shown) [Example 418]	2.7 nM	4 nM
COc1cc(F)c([C@@H]2CN(c3nccc(NCCO)c3C(F)(F)F)C(=O)[C@H]2NC(=O)c2ccc(Cl)cc2)c(F)c1 [Example 419]	4.8 nM	110 nM
COc1cc(F)c([C@@H]2CN(c3nccc(N4CCOCC4)c3C(F)(F)F)C(=O)[C@H]2NC(=O)c2ccc(Cl)cc2)c(F)c1 [Example 420]	7.3 nM	51 nM
COc1cc(F)c([C@@H]2CN(c3c(C)ccn(CC(F)F)c3=O)C(=O)[C@H]2NC(=O)c2ccc(Cl)cc2)c(F)c1 [Example 421]	3.3 nM	15 nM
COCCn1ccc(C)c(N2C[C@@H](c3c(F)cc(OC)cc3F)[C@H](NC(=O)c3ccc(Cl)cc3)C2=O)c1=O [Example 422]	1.1 nM	3 nM
COCCNc1ccnc(N2C[C@@H](c3c(F)cc(OC)cc3F)[C@H](NC(=O)c3ccc(Cl)cc3)C2=O)c1C(F)(F)F [Example 423]	4.7 nM	1100 nM
CC(O)Cn1cccc(N2C[C@@H](c3ccc(Cl)cc3)[C@H](NC(=O)c3ccc(Cl)cc3)C2=O)c1=O (stereo partly shown) [Example 424]	2.2 nM	11 nM
COCC(CO)n1ccc(C)c(N2C[C@@H](c3c(F)cc(OC)cc3F)[C@H](NC(=O)c3ccc(OC(F)F)cc3)C2=O)c1=O (stereo partly shown) [Example 426]	2.3 nM	4 nM
COCC(CO)n1ccc(C)c(N2C[C@@H](c3c(F)cc(OC)cc3F)[C@H](NC(=O)c3ccc(OC(F)(F)F)cc3)C2=O)c1=O (stereo partly shown) [Example 427]	4.4 nM	2 nM
COCC(C(=O)N(C)C)n1cccc(N2C[C@@H](c3ccc(OC)cc3F)[C@H](NC(=O)c3ccc(OC(F)F)cc3)C2=O)c1=O (stereo partly shown) [Example 428]	9 nM	8 nM
COc1cc(F)c([C@@H]2CN(c3c(C)ccn(CCC(F)(F)F)c3=O)C(=O)[C@H]2NC(=O)c2ccc(Cl)cc2)c(F)c1 [Example 430]	3.3 nM	5 nM
COc1ccnc(N2C(=O)[C@@H](NC(=O)c3ccc(Cl)cc3)[C@H](c3c(F)cc(OC)cc3F)[C@@H]2C)c1 [Example 432]	9.1 nM	3800 nM
